Tested on: FGF10
Experiment: Analysis of mRNA expression of FGF10 in human dermal fibroblasts (qPCR)
Assay type: cell-based
Conditions: for Expression level (% relative to control): FGF10 mRNA, human dermal fibroblasts, 48 hours; for mRNA expression of FGF 10: human fibroblasts treated with the single substance, result in words
Protocol: Human dermal fibroblasts (neonatal) were purchased from Lonza and then cultured in a carbon dioxide incubator at 37° C. and 5% carbon dioxide. In this case, as a medium for culturing, a medium containing Dulbecco's modified eagle medium (DMEM; Thermo Fisher Scientific) with 10% fetal bovine serum (FBS) and 1% antibiotics (penicillin/streptomycin) was used. Afterward, 20000 cells were seeded in a 6-well plate, and 24 hours later, the DMEM culture medium was treated with each sample having compositions shown in Tables 1 and 2 and cultured again for another 48 hours. As a control, a DMEM culture medium not including any other components was used.

C=C1CC[C@@H]2[C@](C)(CO)[C@H](O)CC[C@@]2(C)[C@@H]1C/C=C1/C(=O)OC[C@H]1O [Andrographolide, andrographolide]
Expression level (% relative to control) (Table 1, sample at 0.2 ppm): 141% | mRNA expression of FGF 10: promoted

Nc1ncnc2c1ncn2[C@@H]1O[C@H](CO)[C@@H](O)[C@H]1O [Adenosine, reference compound]
Expression level (% relative to control) (Table 1, sample at 8 ppm): 88% | Expression level (% relative to control) (Table 2, sample at 8 ppm): 88% | mRNA expression of FGF 10: no effect on increasing the expression of FGF 10

O=c1c(O)c(-c2ccc(O)c(O)c2)oc2cc(O)cc(O)c12 [Quercetin, quercetin]
Expression level (% relative to control) (Table 2, sample at 0.2 ppm): 63% | mRNA expression of FGF 10: promoted

Nc1ncnc2c1ncn2[C@@H]1O[C@H](CO)C[C@H]1O [Cordycepin, cordycepin]
Expression level (% relative to control) (Table 1, sample at 8 ppm): 148% | Expression level (% relative to control) (Table 2, sample at 0.2 ppm): 102% | mRNA expression of FGF 10: promoted

— patent US20240261318A1, “ANTI-AGING COSMETIC COMPOSITION” (LG HOUSEHOLD & HEALTH CARE LTD., priority 2021, published 2024)
